# Where two headings read alike, the source gives them in different places.
# How the values were obtained:
# EGFR = target: T1, EGFR (Homo sapiens, UniProt P00533); test: EGFR in-cell Western (ICW) screening protocol; type: cell-based; design: unit not given here; conditions: for ICW Screen: initial screen
# T1 construct: endogenous in cells; host or cells: A431 cells (ATCC CRL-1555)
# Summary of the method: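 Serum-starved cells treated with compound 4 h at 37 °C, then stimulated with EGF (20 or 0 ng/ml solution added) in its continued presence. In-cell Western on fixed cells: phospho-EGFR (800 channel) normalised to total EGFR (700 channel), % inhibition calculated against EGF-stimulated and unstimulated no-compound wells.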
# [1] = tested on: epithelial carcinoma A431 cell line; test: MTT Cell Proliferation Assay, A431 cell line; type: cell-based; conditions: for MTT-72 h A431/MDBK (ratio) / MTT (10 Point follow-up) ratio: value in brackets; for MTT-72 h A431/MDBK (ratio): numerically MDBK value over A431 value; for MTT (10 Point follow-up) ratio: numerically MDBK over A431; for MTT-72 h % Max: maximal effect printed after the ratio
# Summary of the method: (§1)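 Cells plated overnight, then exposed 3 days at 37 °C, 5% CO2 to compound in growth medium with 0.5% FBS and 0.5% DMSO final (0.5% DMSO as control).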
# MDBK line = test: MTT Cell Proliferation Assay, MDBK line; type: cell-based, bovine
# Summary of the method: as §1
# [2] = Homo sapiens, A-431, 72 h, 72 h, first value of A431/MDBK pair, read-out: MTT-72 h A431
# [3] = Bos taurus, MDBK, 72 h, second value of A431/MDBK pair, read-out: MTT-72 h MDBK
# [4] = Homo sapiens, A-431, 10 point follow-up, first value of pair, read-out: MTT (10 Point follow-up) A431
# [5] = Bos taurus, MDBK, 10 point follow-up, second value of pair, read-out: MTT (10 Point follow-up) MDBK
# T1 sequence (P00533 25-1210): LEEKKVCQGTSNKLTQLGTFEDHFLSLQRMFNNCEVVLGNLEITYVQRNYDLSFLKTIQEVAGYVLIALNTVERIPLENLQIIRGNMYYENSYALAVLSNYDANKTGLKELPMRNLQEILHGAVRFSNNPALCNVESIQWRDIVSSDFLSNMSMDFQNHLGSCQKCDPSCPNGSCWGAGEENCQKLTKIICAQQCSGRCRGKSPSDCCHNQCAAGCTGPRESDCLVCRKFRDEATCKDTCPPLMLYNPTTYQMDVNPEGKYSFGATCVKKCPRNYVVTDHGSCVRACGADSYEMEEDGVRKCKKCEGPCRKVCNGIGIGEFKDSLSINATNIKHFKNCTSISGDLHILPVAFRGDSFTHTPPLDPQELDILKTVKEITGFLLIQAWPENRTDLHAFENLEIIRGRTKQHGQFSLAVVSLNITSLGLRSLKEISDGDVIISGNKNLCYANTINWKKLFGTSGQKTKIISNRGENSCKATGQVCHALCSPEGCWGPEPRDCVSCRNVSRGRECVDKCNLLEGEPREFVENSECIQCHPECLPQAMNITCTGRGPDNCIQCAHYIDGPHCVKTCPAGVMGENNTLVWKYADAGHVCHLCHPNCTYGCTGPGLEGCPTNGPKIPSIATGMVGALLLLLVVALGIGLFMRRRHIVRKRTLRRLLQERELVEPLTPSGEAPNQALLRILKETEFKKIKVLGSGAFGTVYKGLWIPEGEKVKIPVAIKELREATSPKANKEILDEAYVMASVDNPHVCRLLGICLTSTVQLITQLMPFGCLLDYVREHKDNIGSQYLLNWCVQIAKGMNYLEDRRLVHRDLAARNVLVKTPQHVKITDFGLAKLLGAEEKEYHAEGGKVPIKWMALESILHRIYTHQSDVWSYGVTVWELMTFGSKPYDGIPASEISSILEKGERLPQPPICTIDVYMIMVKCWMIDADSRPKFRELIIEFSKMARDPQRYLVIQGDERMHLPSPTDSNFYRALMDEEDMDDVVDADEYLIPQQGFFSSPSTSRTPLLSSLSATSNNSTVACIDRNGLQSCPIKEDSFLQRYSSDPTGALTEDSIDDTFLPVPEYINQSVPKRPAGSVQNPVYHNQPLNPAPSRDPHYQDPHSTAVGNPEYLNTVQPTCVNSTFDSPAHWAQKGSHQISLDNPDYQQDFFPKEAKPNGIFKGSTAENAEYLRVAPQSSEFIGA
Structure (SMILES),ICW Screen (EGFR),MTT-72 h A431/MDBK (ratio) ([1]; 72 h),"IC50 [1, 2]",IC50 (MDBK line; [3]),ICW Re-Test (EGFR),MTT (10 Point follow-up) ratio ([1]; 10 point follow-up),"IC50 [1, 4]",IC50 (MDBK line; [5]),MTT-72 h % Max ([1]; 72 h),"IC50 ([1]; 10 point follow-up, first value of pair, read-out: MTT (10 Point follow-up) A431)","IC50 ([1]; 72 h, first value of A431/MDBK pair, read-out: MTT-72 h A431)","IC50 (MDBK line; 10 point follow-up, second value of pair, read-out: MTT (10 Point follow-up) MDBK)","IC50 (MDBK line; 72 h, second value of A431/MDBK pair, read-out: MTT-72 h MDBK)","MTT (10 Point follow-up) % Max ([1]; 10 point follow-up, maximal effect)"
CCCOc1ccc(C(Nc2ccccn2)c2ccc3cccnc3c2O)cc1 (stereo not shown) [compound 10028],30.12,0.95,5.69 µM,5.38 µM,–,–,–,–,–,–,–,–,–,–
Cc1cccc(NC(c2ccncc2)c2ccc3cccnc3c2O)n1 (stereo not shown) [compound 10974],50.44,1.14,4.19 µM,4.77 µM,44.13,–,–,–,–,–,–,–,–,–
Cc1ccc2ccc(C(Nc3ccccn3)c3sccc3C)c(O)c2n1 (stereo not shown) [compound 10958],60.73,0.65,14.8 µM,9.67 µM,70.92,–,–,–,–,–,–,–,–,–
O=[N+]([O-])c1ccccc1C(Nc1ccccn1)c1ccc2cccnc2c1O (stereo not shown) [compound 10042],47.99,1.00,1.49 µM,1.49 µM,−8.06,0.69,9.62 µM,6.63 µM,–,–,–,–,–,–
Oc1ccccc1NC(c1cccnc1)c1ccc2cccnc2c1O (stereo not shown) [compound 11151],35.56,0.76,8.25 µM,6.23 µM,45.66,–,–,–,–,–,–,–,–,–
COc1ccc(C(Nc2ccccn2)c2ccc3cccnc3c2O)cc1OC (stereo not shown) [compound 10518],39.93,0.83,6.52 µM,5.43 µM,51.72,–,–,–,–,–,–,–,–,–
CC(C)Oc1ccc(C(Nc2ccccn2)c2ccc3cccnc3c2O)cc1 (stereo not shown) [compound 10068],29.92,0.91,5.72 µM,5.19 µM,–,–,–,–,–,–,–,–,–,–
Cc1ccccc1C(Nc1ccccn1)c1ccc2cccnc2c1O (stereo not shown) [compound 10019],33.75,0.98,5.35 µM,5.25 µM,–,0.71,4.49 µM,3.21 µM,–,–,–,–,–,–
Cc1cccc(NC(c2ccccc2C)c2ccc3ccc(C)nc3c2O)n1 (stereo not shown) [compound 10026],37.03,0.97,5.22 µM,5.19 µM,41.06,–,–,–,–,–,–,–,–,–
Oc1ccc(Br)c(C(Nc2ccccn2)c2ccc3cccnc3c2O)c1 (stereo not shown) [compound 10064],9.336,–,–,–,–,1.29,1.56 µM,2.01 µM,–,–,–,–,–,–
CCOc1ccc(C(Nc2cc(C)ccn2)c2ccc3cccnc3c2O)cc1OC (stereo not shown) [compound 10017],44.27,0.94,3.72 µM,3.51 µM,30.11,0.85,3.52 µM,2.98 µM,–,–,–,–,–,–
Oc1c(C(Nc2ccccn2)c2cccc(Br)c2)cc(Cl)c2cccnc12 (stereo not shown) [compound 10100],18.12,–,–,–,–,1.62,1.06 µM,1.72 µM,–,–,–,–,–,–
Cc1ccc2ccc(C(Nc3ccccn3)c3ccc(C)s3)c(O)c2n1 (stereo not shown) [compound 10961],94.69,1.34,32.4 µM,43.5 µM,71.58,–,–,–,50%,–,–,–,–,–
Oc1c(C(Nc2ccccn2)c2cccnc2)cc(Cl)c2cccnc12 (stereo not shown) [compound 10955],37.33,0.97,5.5 µM,5.36 µM,53.58,–,–,–,–,–,–,–,–,–
Cc1cccc(NC(c2ccc(O)cc2)c2ccc3ccc(C)nc3c2O)n1 (stereo not shown) [compound 10037],32.12,0.42,43 µM,18.2 µM,–,–,–,–,–,–,–,–,–,–
COc1ccc(C(NC(=O)c2cccnc2)c2cc(Cl)c3cccnc3c2O)cc1OC (stereo not shown) [compound 10969],30.17,–,–,–,73.15,1.02,0.51 µM,0.52 µM,–,–,–,–,–,–
CCOc1cc(C(NC(=O)C(C)(C)C)c2cc([N+](=O)[O-])c3cccnc3c2O)ccc1O (stereo not shown) [compound 10941],27.61,1.02,5.92 µM,6.05 µM,67.81,1.56,1.12 µM,1.75 µM,–,–,–,–,–,–
COc1ccc(C(Nc2ccccn2)c2ccc3cccnc3c2O)cc1 (stereo not shown) [compound 10524],38.96,0.95,5.33 µM,5.09 µM,30.44,–,–,–,–,–,–,–,–,–

Structure (SMILES),ICW Screen (EGFR),MTT-72 h A431/MDBK (ratio) ([1]; 72 h),"IC50 [1, 2]",IC50 (MDBK line; [3]),ICW Re-Test (EGFR),MTT (10 Point follow-up) ratio ([1]; 10 point follow-up),"IC50 [1, 4]",IC50 (MDBK line; [5]),MTT-72 h % Max ([1]; 72 h),"IC50 ([1]; 10 point follow-up, first value of pair, read-out: MTT (10 Point follow-up) A431)","IC50 ([1]; 72 h, first value of A431/MDBK pair, read-out: MTT-72 h A431)","IC50 (MDBK line; 10 point follow-up, second value of pair, read-out: MTT (10 Point follow-up) MDBK)","IC50 (MDBK line; 72 h, second value of A431/MDBK pair, read-out: MTT-72 h MDBK)","MTT (10 Point follow-up) % Max ([1]; 10 point follow-up, maximal effect)"
Cc1ccnc(NC(c2cc(C)ccc2O)c2ccc3cccnc3c2O)c1 (stereo not shown) [compound 10029],40.02,0.84,6.46 µM,5.42 µM,35.03,–,–,–,–,–,–,–,–,–
Oc1cccnc1NC(c1ccc(F)cc1)c1ccc2cccnc2c1O (stereo not shown) [compound 10509],31.55,1.60,1.28 µM,2.05 µM,–,1.56,1.25 µM,1.95 µM,–,–,–,–,–,–
Cc1ccc(NC(c2ccccc2O)c2ccc3cccnc3c2O)nc1 (stereo not shown) [compound 10430],43.81,0.86,6.47 µM,5.58 µM,48.57,–,–,–,–,–,–,–,–,–
CCCC(=O)NC(c1ccc(OC)c(OC)c1)c1cc(Cl)c2cccnc2c1O (stereo not shown) [compound 10949],26.99,1.03,5.63 µM,5.79 µM,–,–,–,–,–,–,–,–,–,–
Cc1cccc(NC(c2ccc(C(F)(F)F)cc2)c2ccc3cccnc3c2O)n1 (stereo not shown) [compound 10483],17.58,–,–,–,–,–,–,–,–,0.253 µM,0.26 µM,0.481 µM,0.49 µM,–
Oc1c(C(Nc2ccccn2)c2ccccc2Br)cc(Cl)c2cccnc12 (stereo not shown) [compound 10074],6.951,–,–,–,–,1.16,1.38 µM,1.6 µM,–,–,–,–,–,–
Oc1c(C(Nc2ccc(OC(F)F)cc2)c2ccccn2)ccc2cccnc12 (stereo not shown) [compound 11072],44.06,0.49,43.2 µM,21.1 µM,36.82,–,–,–,12%,–,–,–,–,–
CCOc1cc(C(Nc2cc(C)ccn2)c2ccc3ccc(C)nc3c2O)ccc1O (stereo not shown) [compound 10071],40.85,1.37,7.89 µM,10.8 µM,43.19,–,–,–,–,–,–,–,–,–
CCOc1cc(C(Nc2cc(C)ccn2)c2ccc3cccnc3c2O)ccc1OC (stereo not shown) [compound 1991],47.06,0.79,9.08 µM,7.14 µM,30.75,–,–,–,–,–,–,–,–,–
COc1ccc(C)cc1NC(c1ccc(F)cc1)c1ccc2cccnc2c1O (stereo not shown) [compound 11014],47.81,0.92,4.68 µM,4.32 µM,32.53,–,–,–,–,–,–,–,–,–
CCc1ccc(C(Nc2ccccn2)c2ccc3cccnc3c2O)cc1 (stereo not shown) [compound 10041],45.08,1.00,2.95 µM,2.94 µM,3.45,1.47,1.59 µM,2.34 µM,–,–,–,–,–,–
COc1ccc(Br)cc1C(Nc1ccccn1)c1cc(Cl)c2cccnc2c1O (stereo not shown) [compound 10108],15.91,–,–,–,–,1.53,1.13 µM,1.73 µM,–,–,–,–,–,–
Oc1c(C(Nc2cccc(Cl)c2)c2cccnc2)ccc2cccnc12 (stereo not shown) [compound 11057],44.4,0.98,7.99 µM,7.86 µM,73.29,–,–,–,–,–,–,–,–,–
Cc1ccc2ccc(C(Nc3ccccn3)c3cccc(O)c3)c(O)c2n1 (stereo not shown) [compound 1970],26.33,0.81,39.7 µM,32.4 µM,–,–,–,–,–,–,–,–,–,–
CCN1CCN(C(c2cccnc2)c2ccc3cccnc3c2O)CC1 (stereo not shown) [compound 10550],31.84,0.79,9.59 µM,7.6 µM,–,–,–,–,–,–,–,–,–,–
Cc1ccc(NC(c2ccccc2)c2ccc3cccnc3c2O)cc1 (stereo not shown) [compound 10664],64.09,1.12,1.92 µM,2.14 µM,69.21,–,–,–,–,–,–,–,–,–
Oc1c(C(Nc2ccccn2)c2cccc(Cl)c2)cc(Cl)c2cccnc12 (stereo not shown) [compound 10097],28.02,0.98,6.23 µM,6.09 µM,–,1.66,1.25 µM,2.07 µM,–,–,–,–,–,–
Oc1c(C(Nc2ccccn2)c2c(F)cccc2Cl)cc(Cl)c2cccnc12 (stereo not shown) [compound 10105],3.88,1.12,1.29 µM,1.45 µM,–,1.40,0.605 µM,0.85 µM,–,–,–,–,–,77%

# From patent publication US9073858B2, “Methods of targeted drug development” (priority 2010, dated 2015)
